Read-outs that look alike come from different tables or passages of the source.
What was measured:
Streptococcus mutans = conditions: S mutans, BHI
Description: (§1) Late exponential growth phase liquid cultures were prepared by transferring the respective bacterium from blood agar plates to BHI and overnight incubation at 37° C. in an anaerobic atmosphere for A. viscosus, V. parvula, F. nucleatum, P. gingivalis, P. intermedia, T forsythia, A. naeslundii, and C. sputigena, and in a 5% CO2 environment for S. salivarius, S. sanguinis, S. mitis, A. actinomycetemcomitans, S. mutans, S. sobrinus and S. gordonii. Overnight cultures were transferred to BHI and adjusted to a concentration of 1×10^7 CFU/ml (colony forming units per ml) by measuring the optical density at 600 nm (OD600) (BioRad SmartSpec 3000). For each strain, 200 μl of the bacterial suspension was added to a 96-well plate containing 20 μl of the respective carboxylic acids. Final concentrations of the carboxylic acids were set to 5, 10, 20 and 25 μmol/ml. […] Plates were incubated as previously described.
(§2) For each combination of bacterium/carboxylic acid, and for each of their respective controls (i.e. the particular bacterium in the nutritionally rich medium with no carboxylic acid), the optical density was measured at 630 nm (OD630) at 0 h, 24 h and 48 h (Thermo Scientific Multiskan Ascent). Additionally, the OD630 for combinations of bacterium/carboxylic acid grown in a 5% CO2 environment were also measured every hour between 0 h and 9 h.
(§3) The experiment was carried out on three different days (thus providing 3 biological replicas) and on each day the experiment was carried out in quadruple (thus providing 4 technical replicas) for each combination of bacterium with carboxylic acid and for each control. For each day and for each combination, the average (mean) of the values obtained (as detailed above) for the four technical replicas was calculated to provide a single value for each combination on each day.

Streptococcus mitis = conditions: S mitis, BHI
Description: as §1, §2, §3

Row | Compound | extent of growth, maximal OD630 over 48 hr divided by maximal OD of control (control = 1) (Streptococcus mutans; 5 μmol/ml) | extent of growth, maximal OD630 over 48 hr divided by maximal OD of control (control = 1) (Streptococcus mutans; 10 μmol/ml) | extent of growth, maximal OD630 over 48 hr divided by maximal OD of control (control = 1) (Streptococcus mutans; 20 μmol/ml) | extent of growth, maximal OD630 over 48 hr divided by maximal OD of control (control = 1) (Streptococcus mutans; 25 μmol/ml) | extent of growth, maximal OD630 over 48 hr divided by maximal OD of control (control = 1) (Streptococcus mitis; 5 μmol/ml) | extent of growth, maximal OD630 over 48 hr divided by maximal OD of control (control = 1) (Streptococcus mitis; 10 μmol/ml) | extent of growth, maximal OD630 over 48 hr divided by maximal OD of control (control = 1) (Streptococcus mitis; 20 μmol/ml) | extent of growth, maximal OD630 over 48 hr divided by maximal OD of control (control = 1) (Streptococcus mitis; 25 μmol/ml)
1 | N[C@@H](CC(=O)O)C(=O)O [L-aspartic acid] | 0.9466 | 0.9230 | 0.9036 | 0.9149 | 1.2333 | 1.2959 | 1.2536 | 1.1257
2 | O=C(O)CCC(=O)O [Succinic acid, succinic acid] | 0.8643 | 0.8599 | 0.8734 | 0.8448 | 0.7273 | 0.7615 | 0.4339 | 0.1591
